Data as given in BigSolDB 2.1.

N#CCC(N)=O
solubility (mole fraction)
Details | 273.15 K | 278.15 K | 283.15 K | 288.15 K | 293.15 K | 298.15 K | 303.15 K | 308.15 K | 313.15 K | 318.15 K
in 1,4-dioxane | – | – | – | 0.0127 | 0.0155 | 0.0186 | 0.0226 | 0.0278 | 0.0342 | 0.0407
in DMF | 0.254 | 0.262 | 0.271 | 0.283 | 0.295 | 0.309 | 0.325 | 0.343 | 0.36 | 0.382
in THF | 0.00988 | 0.0112 | 0.0128 | 0.0145 | 0.0164 | 0.0187 | 0.0209 | 0.0236 | 0.0268 | 0.0301
in acetone | 0.0248 | 0.0286 | 0.0335 | 0.039 | 0.0453 | 0.0527 | 0.0612 | 0.0712 | 0.0833 | 0.0956
in acetonitrile | 0.0154 | 0.0187 | 0.0232 | 0.0272 | 0.0329 | 0.0389 | 0.0469 | 0.0553 | 0.0671 | 0.0795
in chloroform | 0.000389 | 0.000465 | 0.000562 | 0.000678 | 0.000821 | 0.000985 | 0.00119 | 0.00143 | 0.00173 | 0.00208
in dichloromethane | 0.000321 | 0.000388 | 0.000471 | 0.000559 | 0.000668 | 0.000792 | 0.000931 | 0.00112 | – | –
in ethanol | 0.00455 | 0.00558 | 0.00681 | 0.0087 | 0.0105 | 0.0129 | 0.0157 | 0.0188 | 0.0229 | 0.0277
in ethyl acetate | 0.0043 | 0.00509 | 0.00602 | 0.00694 | 0.00829 | 0.00951 | 0.011 | 0.0128 | 0.0149 | 0.017
in methanol | 0.0126 | 0.0156 | 0.0186 | 0.0227 | 0.0273 | 0.0332 | 0.04 | 0.0482 | 0.0558 | 0.0674
in methyl acetate | 0.0115 | 0.0137 | 0.0163 | 0.0195 | 0.0228 | 0.0263 | 0.0307 | 0.0355 | 0.0408 | 0.0467
in n-butanol | 0.00201 | 0.00246 | 0.00298 | 0.00377 | 0.00456 | 0.0055 | 0.00667 | 0.00797 | 0.00982 | 0.0119
in n-propanol | 0.0022 | 0.00274 | 0.00355 | 0.00461 | 0.00591 | 0.00755 | 0.00935 | 0.0117 | 0.0147 | 0.0182
in water | – | 0.0136 | 0.0179 | 0.0233 | 0.0313 | 0.0405 | 0.0519 | 0.0674 | 0.0887 | 0.114
